Values of other authors in US20070166273A1, “Skin treatment educational kit” (priority 2006, published 2007).

Legend:
[1] = tested on: New Zealand White rabbits; conditions: New Zealand White rabbits (3.3 times max human systemic dose)
rats [2] = conditions: oral
rabbits = conditions: 0.5 mg/kg/day (8 times max human systemic dose)
[3] = Ames assay
rats [4] = conditions: dermal
mice [5] = conditions: oral
mice [6] = conditions: 0.025 mg/kg/day topically to mice (0.1 times max human systemic dose)
rats [7] = conditions: oral, rats (16 times the human topical dose)
subhuman primates = conditions: oral
rats [8] = conditions: oral, 2.5 mg/kg/day (20 times max human systemic dose)
mouse = conditions: in vivo mouse micronucleus assay
CD-1 mice = conditions: 91-week dermal
hairless albino mice = conditions: concurrent exposure
Wistar rats [9] = conditions: orally or topically, Wistar rats (8 times max human systemic dose)
Wistar rats [10] = tested on: Wistar rats
pigmented mice = conditions: 0.05% tretinoin
[11] = dermally applied, 1.0 mg/kg/day (8 times max human systemic dose)
hamsters = conditions: oral

CC1=C(/C=C/C(C)=C/C=C/C(C)=C/C(=O)O)C(C)(C)CCC1 [tretinoin, all-trans-retinoic acid]
dose with increased incidence of domed head and hydrocephaly [1]: greater than 0.2 mg/kg/day | teratogenicity (rats [2]): teratogenic | reports describing holoprosencephaly (human; of the thirty human cases): five | human cases of temporally associated congenital malformations (human; two decades of clinical use): Thirty | fetotoxicity and teratogenicity (rabbits; dermally applied): may be fetotoxic, but not overly teratogenic | fetotoxicity (rabbits; topical): fetotoxic | mutagenic potential [3]: negative | sperm count and motility (rats [4]; 0.5 mg/kg/day, rats (4 times max human systemic dose)): slight (not statistically significant) decreases | number and percent of nonviable embryos (rats [4]; females treated with 0.25 mg/kg/day and above (2 times max human systemic dose)): slight (not statistically significant) increases | teratogenicity (mice [5]): teratogenic | carcinogenic potential (mice [6]): no evidence of carcinogenic potential | dose with decreased survival of neonates and growth retardation (rats [7]): > 2 mg/kg/day | teratogenicity (subhuman primates): teratogenic | fetotoxicity (rats [8]): fetotoxic, resulting in skeletal variations and increased intrauterine death | mutagenic potential (mouse): negative | cutaneous squamous cell carcinomas and papillomas in the treatment area (CD-1 mice; 0.017% and 0.035% formulations (max systemic 0.5 and 1.0 mg/kg/day), female CD-1 mice): observed in some female mice | liver tumors (CD-1 mice; 0.017% and 0.035% formulations, male CD-1 mice): dose-related incidence | tumorigenic potential of carcinogenic doses of UVB and UVA light (hairless albino mice): may enhance the tumorigenic potential | teratogenic and fetotoxic dose (Wistar rats [9]): greater than 1 mg/kg/day | anomalies: humerus bent (Wistar rats [10]; 10 mg/kg/day topically applied): 6% | anomalies: humerus short (Wistar rats [10]; 10 mg/kg/day topically applied): 13% | anomalies: os parietal incompletely ossified (Wistar rats [10]; 10 mg/kg/day topically applied): 14% | dose with evidence for teratogenicity (shortened or kinked tail) (Wistar rats [10]; topical, Wistar rats (8 times max human systemic dose)): greater than 1 mg/kg/day | enhancement of photocarcinogenesis (pigmented mice): dark pigmentation did not overcome the enhancement of photocarcinogenesis | fetotoxicity and teratogenicity [11]: may be fetotoxic, but not overly teratogenic | teratogenicity (hamsters): teratogenic | dose with fetal malformations (cynomolgus monkey; cynomolgus monkey): ≥ 10 mg/kg/day | embryolethality and abortion (cynomolgus monkey; cynomolgus monkey): dose-related increase | dose at which no fetal malformations were observed (cynomolgus monkey; cynomolgus monkey (83 times max human systemic dose)): 5 mg/kg/day | skeletal variations (cynomolgus monkey; cynomolgus monkey, all doses): increased skeletal variations were observed at all doses
